Reference: US9492471B2, “Methods of treating a disease or disorder associated with Bruton'S Tyrosine Kinase” (Celgene Avilomics Research, Inc., priority 2013, dated 2016)
Read-outs that look alike come from different tables or passages of the source.

Columns and labels:
Test in all cases: HotSpot kinase profiling
Format in all cases: biochemical
ACK1 = biological target: T1, ACK1 (Homo sapiens, UniProt Q07912)
T1 construct: purchased Reaction Biology Corp
Outline: (§1)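 Radio-isotope P81 filtration format. Substrate + required cofactors in reaction buffer, kinase added, 2 h RT. Stop, wash with 0.1% phosphoric acid, detect. % inhibition vs DMSO; mean of duplicates where repeated.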

HPK1/MAP4K1 = biological target: T2, HPK1/MAP4K1 (Homo sapiens, UniProt Q92918)
T2 construct: purchased Reaction Biology Corp
T2 sequence (Q92918 whole entry): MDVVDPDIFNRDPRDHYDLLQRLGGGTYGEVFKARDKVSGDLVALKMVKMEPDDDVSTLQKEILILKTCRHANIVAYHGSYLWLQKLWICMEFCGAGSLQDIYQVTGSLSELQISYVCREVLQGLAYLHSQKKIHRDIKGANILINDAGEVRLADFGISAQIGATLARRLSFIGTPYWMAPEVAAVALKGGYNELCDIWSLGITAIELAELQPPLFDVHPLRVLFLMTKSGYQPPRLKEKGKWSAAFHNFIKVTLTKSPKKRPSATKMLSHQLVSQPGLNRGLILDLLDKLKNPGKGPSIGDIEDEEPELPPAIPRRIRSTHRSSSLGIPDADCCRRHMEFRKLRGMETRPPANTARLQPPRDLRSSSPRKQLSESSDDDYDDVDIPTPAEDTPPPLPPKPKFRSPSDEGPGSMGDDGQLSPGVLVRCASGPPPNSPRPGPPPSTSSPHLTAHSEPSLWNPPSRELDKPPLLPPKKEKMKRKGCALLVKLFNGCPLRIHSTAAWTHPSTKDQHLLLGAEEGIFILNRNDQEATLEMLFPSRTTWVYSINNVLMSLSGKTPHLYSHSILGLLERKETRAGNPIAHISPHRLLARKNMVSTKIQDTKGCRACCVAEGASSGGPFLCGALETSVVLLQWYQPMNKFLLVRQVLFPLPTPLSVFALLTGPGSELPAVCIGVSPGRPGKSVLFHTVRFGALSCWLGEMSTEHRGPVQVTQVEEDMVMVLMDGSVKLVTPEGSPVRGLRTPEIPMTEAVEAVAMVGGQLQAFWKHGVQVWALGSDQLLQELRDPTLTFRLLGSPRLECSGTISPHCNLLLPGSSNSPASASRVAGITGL
Outline: as §1

MYO3b = biological target: T3, MYO3b (Homo sapiens, UniProt Q8WXR4)
T3 construct: purchased Reaction Biology Corp
T3 sequence (Q8WXR4 1-1341): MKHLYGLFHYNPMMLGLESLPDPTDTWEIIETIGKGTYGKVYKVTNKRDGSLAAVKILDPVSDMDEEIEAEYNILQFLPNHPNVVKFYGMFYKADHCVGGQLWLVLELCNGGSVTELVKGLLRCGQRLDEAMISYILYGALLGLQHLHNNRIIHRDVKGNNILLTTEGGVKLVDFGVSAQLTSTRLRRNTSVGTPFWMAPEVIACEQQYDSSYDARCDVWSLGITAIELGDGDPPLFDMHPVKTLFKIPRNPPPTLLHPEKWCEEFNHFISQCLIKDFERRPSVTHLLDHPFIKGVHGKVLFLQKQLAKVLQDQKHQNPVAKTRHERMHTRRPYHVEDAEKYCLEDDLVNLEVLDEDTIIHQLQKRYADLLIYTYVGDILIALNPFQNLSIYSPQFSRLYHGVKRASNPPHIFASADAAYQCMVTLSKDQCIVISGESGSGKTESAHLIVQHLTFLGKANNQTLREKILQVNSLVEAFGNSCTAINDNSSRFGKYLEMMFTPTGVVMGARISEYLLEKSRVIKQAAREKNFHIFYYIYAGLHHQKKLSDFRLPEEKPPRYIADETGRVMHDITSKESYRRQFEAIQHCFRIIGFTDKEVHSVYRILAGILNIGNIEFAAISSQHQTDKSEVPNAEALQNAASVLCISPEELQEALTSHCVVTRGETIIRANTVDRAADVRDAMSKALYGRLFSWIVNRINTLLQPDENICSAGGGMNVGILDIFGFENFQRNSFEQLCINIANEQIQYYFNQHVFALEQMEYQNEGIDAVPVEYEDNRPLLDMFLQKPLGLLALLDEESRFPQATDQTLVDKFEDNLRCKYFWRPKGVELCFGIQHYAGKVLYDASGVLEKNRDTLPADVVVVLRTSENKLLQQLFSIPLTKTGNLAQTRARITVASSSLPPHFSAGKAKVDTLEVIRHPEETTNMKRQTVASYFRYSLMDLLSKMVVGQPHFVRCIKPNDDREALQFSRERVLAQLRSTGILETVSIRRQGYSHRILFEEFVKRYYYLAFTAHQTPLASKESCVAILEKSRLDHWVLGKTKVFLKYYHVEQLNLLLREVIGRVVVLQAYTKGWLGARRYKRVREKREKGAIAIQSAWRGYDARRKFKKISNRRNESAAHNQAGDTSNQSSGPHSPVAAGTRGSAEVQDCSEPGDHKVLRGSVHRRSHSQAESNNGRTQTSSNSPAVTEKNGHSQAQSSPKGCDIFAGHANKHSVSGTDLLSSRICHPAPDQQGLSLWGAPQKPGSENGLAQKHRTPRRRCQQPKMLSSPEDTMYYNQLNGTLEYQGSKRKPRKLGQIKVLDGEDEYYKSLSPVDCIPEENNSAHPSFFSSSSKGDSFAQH
Outline: as §1

PAK4 = biological target: T4, PAK4 (Homo sapiens, UniProt O96013)
T4 construct: purchased Reaction Biology Corp
T4 sequence (O96013 whole entry): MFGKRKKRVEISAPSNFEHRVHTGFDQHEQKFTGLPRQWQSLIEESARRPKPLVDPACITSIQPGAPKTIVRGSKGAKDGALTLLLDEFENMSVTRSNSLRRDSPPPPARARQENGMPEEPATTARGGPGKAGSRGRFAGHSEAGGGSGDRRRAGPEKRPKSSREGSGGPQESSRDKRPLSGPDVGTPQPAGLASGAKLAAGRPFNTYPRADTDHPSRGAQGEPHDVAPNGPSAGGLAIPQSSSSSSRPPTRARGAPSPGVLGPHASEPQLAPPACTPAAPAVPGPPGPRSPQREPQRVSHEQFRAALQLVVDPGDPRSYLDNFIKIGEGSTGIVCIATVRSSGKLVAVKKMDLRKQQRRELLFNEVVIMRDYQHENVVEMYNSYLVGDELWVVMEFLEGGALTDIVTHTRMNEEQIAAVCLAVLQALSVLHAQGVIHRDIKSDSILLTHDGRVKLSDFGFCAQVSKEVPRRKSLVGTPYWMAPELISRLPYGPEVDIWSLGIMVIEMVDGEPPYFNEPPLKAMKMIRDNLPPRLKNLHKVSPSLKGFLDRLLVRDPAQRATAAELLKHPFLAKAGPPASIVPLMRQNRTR
Outline: as §1

PASK = biological target: T5, PASK (Homo sapiens, UniProt Q96RG2)
T5 construct: purchased Reaction Biology Corp
T5 sequence (Q96RG2 whole entry): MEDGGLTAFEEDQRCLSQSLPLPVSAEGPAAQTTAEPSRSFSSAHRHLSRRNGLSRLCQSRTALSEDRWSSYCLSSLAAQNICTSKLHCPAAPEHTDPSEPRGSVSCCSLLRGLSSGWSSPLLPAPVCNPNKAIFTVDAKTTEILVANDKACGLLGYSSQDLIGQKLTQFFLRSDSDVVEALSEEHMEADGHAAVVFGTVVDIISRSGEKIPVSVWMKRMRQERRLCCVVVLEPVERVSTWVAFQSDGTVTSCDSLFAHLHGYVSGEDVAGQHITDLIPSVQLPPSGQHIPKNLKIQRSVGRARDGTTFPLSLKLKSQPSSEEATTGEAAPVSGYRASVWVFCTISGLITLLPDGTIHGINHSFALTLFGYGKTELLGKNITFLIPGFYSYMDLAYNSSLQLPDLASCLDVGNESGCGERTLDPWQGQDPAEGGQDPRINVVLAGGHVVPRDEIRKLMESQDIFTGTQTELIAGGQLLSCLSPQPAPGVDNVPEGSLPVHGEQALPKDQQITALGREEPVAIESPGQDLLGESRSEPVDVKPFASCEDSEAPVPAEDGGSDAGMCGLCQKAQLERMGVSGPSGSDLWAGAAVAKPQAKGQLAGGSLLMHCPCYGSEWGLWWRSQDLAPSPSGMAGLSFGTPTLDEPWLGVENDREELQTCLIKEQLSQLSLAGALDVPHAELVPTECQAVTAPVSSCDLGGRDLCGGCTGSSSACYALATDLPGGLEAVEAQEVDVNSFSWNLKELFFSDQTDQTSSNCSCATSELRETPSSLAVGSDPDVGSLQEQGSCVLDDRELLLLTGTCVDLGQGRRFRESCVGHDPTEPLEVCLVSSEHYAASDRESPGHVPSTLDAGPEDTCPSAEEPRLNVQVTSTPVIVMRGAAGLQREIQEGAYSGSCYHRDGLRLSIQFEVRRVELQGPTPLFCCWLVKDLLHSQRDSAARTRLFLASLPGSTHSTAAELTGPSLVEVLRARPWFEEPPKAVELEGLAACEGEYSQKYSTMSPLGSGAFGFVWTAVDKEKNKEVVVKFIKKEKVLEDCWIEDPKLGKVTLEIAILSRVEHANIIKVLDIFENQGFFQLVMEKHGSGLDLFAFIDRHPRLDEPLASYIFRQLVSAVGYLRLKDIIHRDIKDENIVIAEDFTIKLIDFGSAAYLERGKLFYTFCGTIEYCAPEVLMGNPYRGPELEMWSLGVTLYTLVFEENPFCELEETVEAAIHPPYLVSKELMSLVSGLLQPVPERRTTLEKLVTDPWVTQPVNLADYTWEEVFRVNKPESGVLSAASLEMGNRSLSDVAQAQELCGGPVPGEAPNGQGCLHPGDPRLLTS
Outline: as §1

PKA = biological target: T6, PKA (Homo sapiens, UniProt P17612)
T6 construct: purchased Reaction Biology Corp
Outline: as §1

SIK3 = biological target: T7, SIK3 (Homo sapiens, UniProt Q9Y2K2)
T7 construct: purchased Reaction Biology Corp
T7 sequence (Q9Y2K2 whole entry): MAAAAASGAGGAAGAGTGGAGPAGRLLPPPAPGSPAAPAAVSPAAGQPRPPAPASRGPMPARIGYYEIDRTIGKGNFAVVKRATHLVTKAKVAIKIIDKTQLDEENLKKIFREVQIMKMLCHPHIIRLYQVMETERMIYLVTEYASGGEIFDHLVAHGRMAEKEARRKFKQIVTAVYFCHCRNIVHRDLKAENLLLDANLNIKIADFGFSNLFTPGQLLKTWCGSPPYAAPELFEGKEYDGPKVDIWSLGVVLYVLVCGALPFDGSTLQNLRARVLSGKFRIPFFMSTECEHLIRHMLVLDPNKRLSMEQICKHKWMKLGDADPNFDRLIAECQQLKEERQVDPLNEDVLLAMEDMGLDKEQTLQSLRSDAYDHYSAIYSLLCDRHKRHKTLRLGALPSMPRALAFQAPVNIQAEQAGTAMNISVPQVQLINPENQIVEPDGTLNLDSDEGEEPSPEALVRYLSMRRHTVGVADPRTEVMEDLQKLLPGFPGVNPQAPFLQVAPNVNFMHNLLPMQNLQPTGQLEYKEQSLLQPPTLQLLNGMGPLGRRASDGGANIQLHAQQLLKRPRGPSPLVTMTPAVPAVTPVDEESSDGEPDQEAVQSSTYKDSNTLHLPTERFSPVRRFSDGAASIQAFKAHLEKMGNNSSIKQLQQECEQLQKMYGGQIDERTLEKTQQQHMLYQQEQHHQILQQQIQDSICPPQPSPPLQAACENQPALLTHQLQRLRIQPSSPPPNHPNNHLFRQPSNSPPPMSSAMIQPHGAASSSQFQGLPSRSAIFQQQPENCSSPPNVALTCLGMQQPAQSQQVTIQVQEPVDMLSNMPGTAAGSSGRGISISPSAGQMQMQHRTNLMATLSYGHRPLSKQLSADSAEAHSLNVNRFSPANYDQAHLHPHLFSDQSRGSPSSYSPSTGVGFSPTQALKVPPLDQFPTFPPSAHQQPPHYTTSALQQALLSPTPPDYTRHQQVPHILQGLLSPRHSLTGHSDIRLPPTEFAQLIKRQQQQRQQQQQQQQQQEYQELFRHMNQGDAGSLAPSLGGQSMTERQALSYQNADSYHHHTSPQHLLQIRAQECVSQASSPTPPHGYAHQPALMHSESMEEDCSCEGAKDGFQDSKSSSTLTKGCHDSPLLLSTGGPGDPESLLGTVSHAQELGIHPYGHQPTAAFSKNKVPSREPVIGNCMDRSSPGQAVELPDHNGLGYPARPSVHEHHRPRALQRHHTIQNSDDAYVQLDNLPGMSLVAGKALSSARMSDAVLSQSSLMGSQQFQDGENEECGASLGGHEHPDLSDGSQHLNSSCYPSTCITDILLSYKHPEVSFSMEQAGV
Outline: as §1

[1] = read-out: % Enzyme Activity (relative to DMSO controls) Run 1
[2] = read-out: % Enzyme Activity (relative to DMSO controls) Run 2

T1 sequence (Q07912 whole entry): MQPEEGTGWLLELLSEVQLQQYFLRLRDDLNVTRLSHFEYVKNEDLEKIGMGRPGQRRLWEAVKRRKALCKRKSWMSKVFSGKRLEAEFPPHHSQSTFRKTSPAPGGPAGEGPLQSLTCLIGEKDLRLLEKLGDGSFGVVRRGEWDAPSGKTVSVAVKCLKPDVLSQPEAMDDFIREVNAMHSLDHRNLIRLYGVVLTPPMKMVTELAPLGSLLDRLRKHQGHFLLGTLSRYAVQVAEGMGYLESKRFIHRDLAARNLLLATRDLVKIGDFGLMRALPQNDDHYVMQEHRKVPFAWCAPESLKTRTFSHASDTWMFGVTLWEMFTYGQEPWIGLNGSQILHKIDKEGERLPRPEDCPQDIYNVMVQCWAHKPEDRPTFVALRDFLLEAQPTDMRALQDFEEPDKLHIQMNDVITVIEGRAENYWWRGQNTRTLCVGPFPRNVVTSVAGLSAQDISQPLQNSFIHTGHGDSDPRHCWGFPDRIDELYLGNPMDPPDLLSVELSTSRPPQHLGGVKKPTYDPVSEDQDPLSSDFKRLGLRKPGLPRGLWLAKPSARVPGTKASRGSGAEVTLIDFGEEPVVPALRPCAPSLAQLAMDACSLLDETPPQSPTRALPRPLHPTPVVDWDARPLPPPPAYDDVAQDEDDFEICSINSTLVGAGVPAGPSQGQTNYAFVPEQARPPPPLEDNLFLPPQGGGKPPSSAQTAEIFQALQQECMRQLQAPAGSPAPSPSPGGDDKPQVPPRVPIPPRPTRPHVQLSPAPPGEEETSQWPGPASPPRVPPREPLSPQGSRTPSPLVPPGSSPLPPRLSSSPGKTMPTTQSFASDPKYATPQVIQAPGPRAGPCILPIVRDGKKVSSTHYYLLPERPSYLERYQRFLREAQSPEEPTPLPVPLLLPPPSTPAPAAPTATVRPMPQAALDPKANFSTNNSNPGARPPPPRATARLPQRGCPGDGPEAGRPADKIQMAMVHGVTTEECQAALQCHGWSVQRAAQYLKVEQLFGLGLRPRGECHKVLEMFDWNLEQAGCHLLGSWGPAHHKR

With C=CC(=O)Nc1cccc(Nc2nc(Nc3ccc(OCCOC)c(F)c3)ncc2F)c1 [Compound 2] the inhibition at 3 µM (ACK1) was 77.5%, the remaining activity at 3 µM (ACK1; [1]) was 22.6% and the remaining activity at 3 µM (ACK1; [2]) was 22.5%. For the same compound, the inhibition at 3 µM (HPK1/MAP4K1) was 12.9%, the remaining activity at 3 µM (HPK1/MAP4K1; [1]) was 85.8% and the remaining activity at 3 µM (HPK1/MAP4K1; [2]) was 88.4%. It also gave an inhibition at 3 µM (MYO3b) of -2.59%, a remaining activity at 3 µM (MYO3b; [1]) of 104% and a remaining activity at 3 µM (MYO3b; [2]) of 102%. For the same compound, the inhibition at 3 µM (PAK4) was 2.45%, the remaining activity at 3 µM (PAK4; [1]) was 98.7% and the remaining activity at 3 µM (PAK4; [2]) was 96.4%. The inhibition at 3 µM (PASK) was 6.14%, the remaining activity at 3 µM (PASK; [1]) was 94.7% and the remaining activity at 3 µM (PASK; [2]) was 93.1%. For the same compound, the inhibition at 3 µM (PKA) was 14.5%, the remaining activity at 3 µM (PKA; [1]) was 85.8% and the remaining activity at 3 µM (PKA; [2]) was 85.1%. It also gave an inhibition at 3 µM (SIK3) of 7.93%, a remaining activity at 3 µM (SIK3; [1]) of 91.3% and a remaining activity at 3 µM (SIK3; [2]) of 92.8%.
